± gives the standard deviation of the averaged measurements.
Columns and labels:
LENVATINIB = compound: COc1cc2nccc(Oc3ccc(NC(=O)NC4CC4)c(Cl)c3)c2cc1C(N)=O [LENVATINIB]; assay: surviving fraction relative to DMSO-only wells; higher = less growth inhibition; conditions: exposure time: 5 days
In short: (§1)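 A line counted only if its three screens reached replicate Pearson r >0.7 and median Z' >0.3. Tumour cells in log phase were seeded at 250–500 per well in 384-well plates and, after 24 hours, kept in continuous contact with inhibitors at 0.5, 1, 5, 10, 50, 100, 500 and 1000 nM for five days. Surviving fraction was taken from CellTiter-Glo luminescence relative to the median of DMSO-only wells.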

BEZ-235 = compound: Cn1c(=O)n(-c2ccc(C(C)(C)C#N)cc2)c2c3cc(-c4cnc5ccccc5c4)ccc3ncc21 [BEZ-235]; assay: as above; conditions: exposure time: 5 days
In short: as §1

| Test System | surviving fraction (LENVATINIB; 0.5 nM) | surviving fraction (LENVATINIB; 1 nM) | surviving fraction (LENVATINIB; 5 nM) | surviving fraction (LENVATINIB; 10 nM) | surviving fraction (LENVATINIB; 50 nM) | surviving fraction (LENVATINIB; 100 nM) | surviving fraction (LENVATINIB; 500 nM) | surviving fraction (LENVATINIB; 1000 nM) | surviving fraction (BEZ-235; 0.5 nM) | surviving fraction (BEZ-235; 1 nM) | surviving fraction (BEZ-235; 5 nM) | surviving fraction (BEZ-235; 10 nM) | surviving fraction (BEZ-235; 50 nM) | surviving fraction (BEZ-235; 100 nM) | surviving fraction (BEZ-235; 500 nM) | surviving fraction (BEZ-235; 1000 nM) |
| --- | --- | --- | --- | --- | --- | --- | --- | --- | --- | --- | --- | --- | --- | --- | --- | --- |
| MDAMB361 BREAST | 0.893 ± 0.098 | 0.873 ± 0.034 | 0.959 ± 0.032 | 0.865 ± 0.035 | 0.941 ± 0.08 | 0.978 ± 0.066 | 0.928 ± 0.063 | 0.763 ± 0.063 | 0.888 ± 0.068 | 0.854 ± 0.045 | 0.904 ± 0.03 | 0.882 ± 0.051 | 0.794 ± 0.078 | 0.636 ± 0.037 | 0.355 ± 0.015 | 0.313 ± 0.02 |
| ASKA SYNOVIAL | 1.12 ± 0.063 | 1.04 ± 0.045 | 1.13 ± 0.082 | 1.12 ± 0.1 | 1.19 ± 0.11 | 1.21 ± 0.024 | 1.09 ± 0.044 | 1.04 ± 0.041 | 1.06 ± 0.03 | 0.994 ± 0.023 | 0.896 ± 0.032 | 0.9767 ± 0.0031 | 0.775 ± 0.046 | 0.652 ± 0.016 | 0.418 ± 0.02 | 0.436 ± 0.019 |
| SG28 HEADNECK | 1.01 ± 0.091 | 1.06 ± 0.058 | 1.04 ± 0.011 | 1.08 ± 0.072 | 1.09 ± 0.097 | 0.966 ± 0.069 | 1.1 ± 0.069 | 1.08 ± 0.097 | 1.13 ± 0.053 | 1.09 ± 0.085 | 0.945 ± 0.2 | 0.965 ± 0.063 | 0.762 ± 0.053 | 0.632 ± 0.087 | 0.459 ± 0.039 | 0.342 ± 0.032 |
| SCC003 HEADNECK | 1.18 ± 0.074 | 1.1 ± 0.13 | 1.16 ± 0.12 | 1.1 ± 0.032 | 1.13 ± 0.1 | 1.18 ± 0.064 | 1.13 ± 0.051 | 1.1 ± 0.098 | 1.06 ± 0.089 | 1.11 ± 0.036 | 1.08 ± 0.13 | 1.08 ± 0.11 | 0.776 ± 0.12 | 0.717 ± 0.093 | 0.366 ± 0.02 | 0.289 ± 0.04 |
| SIHA CERVIX | 1.07 ± 0.016 | 1.1 ± 0.04 | 1.12 ± 0.049 | 1.11 ± 0.085 | 1.2 ± 0.14 | 1.18 ± 0.05 | 1.04 ± 0.13 | 0.97 ± 0.035 | 1.08 ± 0.1 | 1.14 ± 0.099 | 1.07 ± 0.044 | 1.03 ± 0.046 | 0.642 ± 0.064 | 0.485 ± 0.029 | 0.237 ± 0.008 | 0.222 ± 0.016 |
| SYO1 SYNOVIAL | 0.942 ± 0.11 | 0.962 ± 0.025 | 0.918 ± 0.017 | 0.889 ± 0.042 | 0.768 ± 0.079 | 0.667 ± 0.042 | 0.528 ± 0.031 | 0.504 ± 0.02 | 1.02 ± 0.036 | 0.973 ± 0.054 | 0.942 ± 0.065 | 0.96 ± 0.023 | 0.705 ± 0.04 | 0.457 ± 0.017 | 0.196 ± 0.011 | 0.117 ± 0.0081 |
| HT1080 SOFT TISSUE | 1 ± 0.043 | 1.01 ± 0.051 | 1 ± 0.033 | 1.02 ± 0.032 | 1 ± 0.013 | 0.978 ± 0.021 | 1 ± 0.039 | 0.987 ± 0.026 | 0.985 ± 0.022 | 1.03 ± 0.011 | 1 ± 0.025 | 0.996 ± 0.055 | 0.6683 ± 0.0059 | 0.496 ± 0.021 | 0.221 ± 0.01 | 0.162 ± 0.0061 |
| SG43 HEADNECK | 0.959 ± 0.18 | 1.01 ± 0.3 | 0.772 ± 0.11 | 0.842 ± 0.098 | 0.84 ± 0.14 | 0.93 ± 0.24 | 1.13 ± 0.17 | 1.09 ± 0.11 | 0.984 ± 0.18 | 1.23 ± 0.35 | 0.946 ± 0.1 | 0.956 ± 0.048 | 0.763 ± 0.12 | 0.77 ± 0.11 | 0.555 ± 0.037 | 0.36 ± 0.036 |
| MCF7 BREAST | 0.954 ± 0.061 | 0.903 ± 0.056 | 0.954 ± 0.059 | 0.931 ± 0.076 | 0.971 ± 0.034 | 0.978 ± 0.11 | 0.942 ± 0.03 | 0.934 ± 0.073 | 0.934 ± 0.071 | 0.961 ± 0.017 | 0.943 ± 0.064 | 0.941 ± 0.036 | 0.681 ± 0.023 | 0.5461 ± 0.0041 | 0.328 ± 0.012 | 0.2896 ± 0.0025 |
| HELA CERVIX | 1.06 ± 0.088 | 1.04 ± 0.095 | 1.05 ± 0.061 | 1.05 ± 0.071 | 1.17 ± 0.04 | 1.19 ± 0.1 | 1.19 ± 0.1 | 1.17 ± 0.044 | 1.05 ± 0.087 | 1.09 ± 0.069 | 1.112 ± 0.0048 | 1.02 ± 0.035 | 1.12 ± 0.061 | 1.2 ± 0.028 | 0.7 ± 0.019 | 0.4533 ± 0.0038 |
